What was measured:
[1] = biological target: T1, serotonin receptor 5-HT1B (Rattus norvegicus, UniProt P28564); assay: radioligand binding to serotonin receptor 5-HT1B ([125I] cyanopindolol); conditions: 10 μM ligand
T1 construct: membrane species are prepared from rat brains (Wistar) by homogenization of species of rat brain-cortices; from tissue; host or cells: rat (Wistar) brain cortex membranes
Protocol: Screening of the disclosed compounds for potential ability to interact with serotonin receptor 5-HT1B is carried out by method of radioligand binding. For this purpose membrane species are prepared from rat brains (Wistar) by homogenization of species of rat brain-cortices in glass homogenizer with the subsequent separation of plasmatic membranes from cell nuclei, mitochondrias and cell wreckages by differential centrifugation. […] After incubation the samples are filtered in vacuo on glass-microfiber filters G/F (Millipor, USA), filters are washed three times with cold solution of medium and radioactivity is measured by scintillation counter MicroBeta 340 (Perkin Elmer, USA). […] Serotonin is used as positive control.
Tested compounds' binding to the receptor is determined by their ability to displace radioligand and expressed in percent of displacement (% I). Values of % I are calculated according to the following equation:
wherein: TA—is overall radioactivity in the presence of radioligand only, CA—is radioactivity in the presence of radioligand and tested compound and NA—is radioactivity in the presence of radioligand and Serotonin (10 μM).

[2] = biological target: T2, recombinant human 5-HT2B receptor (Homo sapiens, UniProt P41595); assay: radioligand binding to serotonin receptor 5-HT2B ([3H] Lysergic acid diethylamide); conditions: 10 μM ligand
T2 construct: expressed in transfected cells; host or cells: CHO-K1
Protocol: Screening of the disclosed compounds for potential ability to interact with serotonin receptor 5-HT2A is carried out by method of radioligand binding. For this purpose membrane species are prepared from CHO-K1 cells comprising recombinant human 5-HT2B receptor by homogenization of recombinant cells in glass homogenizer with the subsequent separation of plasmatic membranes from cell nuclei, mitochondrias and cell wreckages by differential centrifugation. […] After incubation the samples are filtered in vacuo on glass-microfiber filters G/F (Millipor, USA), filters are washed three times with cold solution of medium and radioactivity is measured by scintillation counter MicroBeta 340 (Perkin Elmer, USA). […] Ketanserin is used as positive control. The tested compounds' binding to the receptor is determined by their ability to displace the radioligand and is expressed in percent of displacement (% I). Values of % I are calculated according to the following equation:
wherein: TA—is the overall radioactivity in the presence of radioligand only, CA—is the radioactivity in the presence of radioligand and tested compound and NA—is the radioactivity in the presence of radioligand and Serotonin (10 μM).

recombinant human 5-HT1A = biological target: T3, recombinant human 5-HT1A (Homo sapiens, UniProt P08908); assay: radioligand binding to serotonin receptor 5-HT1A ([3H] 8-OH-DPAT); conditions: 10 μM ligand
T3 construct: expressed in transfected cells; host or cells: CHO
T3 sequence (P08908 1-422): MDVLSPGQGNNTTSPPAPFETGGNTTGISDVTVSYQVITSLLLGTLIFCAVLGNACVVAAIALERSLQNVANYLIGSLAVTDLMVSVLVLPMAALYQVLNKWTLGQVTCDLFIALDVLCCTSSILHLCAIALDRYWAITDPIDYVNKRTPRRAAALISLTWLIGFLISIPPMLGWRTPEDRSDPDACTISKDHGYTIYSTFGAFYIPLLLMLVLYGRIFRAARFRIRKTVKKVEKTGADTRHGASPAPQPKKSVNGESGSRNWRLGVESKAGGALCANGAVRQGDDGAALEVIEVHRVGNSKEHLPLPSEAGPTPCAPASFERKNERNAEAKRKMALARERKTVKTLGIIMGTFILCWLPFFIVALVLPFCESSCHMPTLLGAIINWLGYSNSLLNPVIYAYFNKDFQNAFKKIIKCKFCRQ
Source text: J Pharmacol Exp Ther. 306(1): 301-309, 2003]. […] Metergoline is used as positive control.

male mice of BALB/c line [3] = assay: Passive Avoidance of mice in the Shuttle Chamber, memory disturbed by Scopolamine; format: in vivo; conditions: Scopolamine 0.3 mg/kg
Protocol: A shuttle chamber (Ugo Basile, Italy) consisted of two sections was used. […] The sections were connected through a hole which could be overlapped by a vertical door. The floor was made of transverse metal bars on which DC current impulses could be fed. Experiments were carried out in aged male mice of BALB/c line weighing 20-24 grams.
Each group consisted of at least 8 animals. Animal was placed in light section, and latent period of the first entry into dark chamber was registered. Then the vertical door was closed and the animal was punished by 0.6 mA DC current for 3 seconds. After that it was taken back to its homecage. In 22-24 hours the same animal was placed again in light section of the shuttle chamber and latent period of its first entry into dark section, the total time of its stay in light section, and the number of entries into dark section, were registered. Each monitoring lasted for 5 minutes.
Testing was carried out during the day time in isolated laboratory using white noise at level of about 70 decibel above human hearing threshold.
Scopolamine causes the disturbance of training (memory loss) that results in […].

male mice of BALB/c line [4] = assay: Mice Behavior in the Elevated Plus Maze; format: in vivo
Source text: The length of each arm of the maze was 30 cm, width is 5 cm, and height of the walls was 15 cm. Two opposite arms were closed from both sides and end faces by transparent walls, the other two arms were lit and opened. A mouse was placed in the center of the maze and for the next five minutes the number of entries into opened and closed arms and the time spent in each type of arms was registered. […] The animals usually avoided opened arms (the preference index is between 0.2 and 0.3). Compounds with tranquilizing action increased this index up to 0.5-0.6 or even more and reduced the number of defecations without changing the overall motion activity of the mice (the total number of their entries to the arms).

mice = assay: Mice Training in Morris Water Maze (Scopolamine); format: in vivo; conditions: unitary introduction of active ingredient
Protocol: Mice Training in Morris Water Maze. A round pool which was filled with water at 20-22° C. was used. A round ceramic platform of 14 cm height was placed in the pool. Animals's behavior was registered with automated computer videosystem in combination with software package of movement analysis Any-maze (Stoelting Co., US). Before testing mice suitable for training were selected. That was done by placing the platform 1 cm above the water level and putting an animal on the platform for 20 seconds. Then the mouse was sunk into the water on the opposite side of the pool, allowed to find the platform and climbed it within 60 seconds, where it was left for additional 20 seconds. After that the mouse was repeatedly immersed into water on the opposite side of the pool and allowed to look for platform. If it failed in finding the platform within 60 seconds the experimentator helped it to find the platform and climb it. If the mice could not find the platform itself in two consecutive attempts it was excluded from experiment.
During the next two days the platform was placed 0.5 centimeter lower the water level. Every day the mice were given four attempts for finding the platform within 60 seconds. The time interval between the attempts was 20 seconds, during which the mice stayed on the platform. Every day before the first attempt mouse was placed on the platform for 20 seconds. The time needed for finding and climbing the platform was registered. The animals were sunk in water in 3 different places on the side of the pool opposite to platform. On each day of two-day testing 35-40 minutes before the beginning of training the mice were injected intraintestinally with physiological solution, Scopolamine or Scopolamine in combination with investigated compound. At least 8 animals were used in each group.
On the third day the platform was removed and each animal was placed one time in the pool for a period of 60 seconds. The time each mouse spent in the area where the platform had been located during the previous days was registered. This time interval was regarded as a measure of effectiveness of training fulfilled during the previous two days. The testing was carried out during the day time in isolated laboratory using “white noise” at level of about 70 decibel above the human hearing threshold.

male mice of BALB/c line [5] = assay: Passive Avoidance of mice in the Shuttle Chamber, memory disturbed by MK-801; format: in vivo; conditions: MK-801 0.1 mg/kg
Protocol: The testing was carried out as in example 14. […] Concurrently, physiological solution of MK-801 in combination with active ingredient 1.9 (1) 1/2NDSA was injected intraintestinally to independent group of mice before training

T2 sequence (P41595 whole entry): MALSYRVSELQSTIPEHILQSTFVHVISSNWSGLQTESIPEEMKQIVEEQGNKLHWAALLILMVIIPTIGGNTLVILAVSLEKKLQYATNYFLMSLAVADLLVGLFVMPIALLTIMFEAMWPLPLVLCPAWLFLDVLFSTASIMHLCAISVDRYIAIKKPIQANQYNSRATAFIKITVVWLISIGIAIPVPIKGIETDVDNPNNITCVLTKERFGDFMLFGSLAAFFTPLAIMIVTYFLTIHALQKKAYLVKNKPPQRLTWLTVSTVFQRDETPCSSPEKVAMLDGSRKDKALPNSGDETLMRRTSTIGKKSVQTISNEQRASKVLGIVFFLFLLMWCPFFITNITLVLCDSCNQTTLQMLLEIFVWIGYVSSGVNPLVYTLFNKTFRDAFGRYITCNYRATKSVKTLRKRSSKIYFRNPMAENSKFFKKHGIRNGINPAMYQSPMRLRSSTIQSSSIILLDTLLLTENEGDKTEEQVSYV
T1 sequence (P28564 whole entry): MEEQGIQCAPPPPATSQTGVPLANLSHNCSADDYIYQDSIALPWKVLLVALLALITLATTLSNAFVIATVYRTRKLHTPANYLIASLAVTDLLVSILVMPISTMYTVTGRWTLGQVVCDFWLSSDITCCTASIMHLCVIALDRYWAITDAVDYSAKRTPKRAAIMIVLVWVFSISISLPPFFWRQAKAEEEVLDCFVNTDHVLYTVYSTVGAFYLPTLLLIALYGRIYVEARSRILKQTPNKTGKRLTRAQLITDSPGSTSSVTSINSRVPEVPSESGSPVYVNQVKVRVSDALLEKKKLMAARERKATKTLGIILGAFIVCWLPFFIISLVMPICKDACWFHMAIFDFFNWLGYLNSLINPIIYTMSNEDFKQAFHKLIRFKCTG

SMILES	5-HT1B % inhibition [1] [%]	5-HT2B % inhibition [2] [%]	5-HT1A % inhibition (recombinant human 5-HT1A) [%]	enhancement of memory disturbed by Scopolamine (passive avoidance) (male mice of BALB/c line [3])	anxiolytic (tranquilizing) action in elevated plus maze (male mice of BALB/c line [4]; doses of 0.05 and 0.1 mg/kg)	memory disorders caused by Scopolamine in Morris water maze (mice)	anxiolytic (tranquilizing) action in elevated plus maze (male mice of BALB/c line [4]; mice BALB/c)	enhancement of memory disturbed by MK-801 (passive avoidance) (male mice of BALB/c line [5])
CN1CCc2c(c3cc(F)ccc3n2CCc2ccccc2)C1.Cl [1.1.2(1-6)•HCl]	25	85	16					
Cc1ccc2c(c1)c1c(n2CCc2ccc(C)nc2)CCN(C)C1.Cl.Cl [1.1.2(4-2)]				improve memory	analogous action	decreasing memory disorders coused by Scopalomine		
CN1CCc2c(c3ccccc3n2Cc2ccccc2)C1 [1.9(1)·1/2NDSA, bis-(5-benzyl-2-methyl-2,3,4,5-tetrahydro-1H-pyrido[4,3-b]indole) naphthalene-1,5-disulfonate]				nootropic action			anxiolytic (tranquilizing) action which is comparable with the activity of Buspirone and Lorasepam	act as nootropic
